According to PubChem BioAssay (NCI):
“And” between values parts separate entries of the source, which are not always exact repeats. Identical values can stand only once.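 Where inhibition never reached the appropriate level, the endpoint shown equals the highest concentration tested. Otherwise, values were interpolated linearly from a five-concentration, 48-hour dose response in 96-well plates. GI50 marks 50% less growth. TGI: concentration producing complete growth inhibition.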

Assays:
Assay in all cases: inhibition of tumour cell growth, NCI panel, 48 h
[1] = tested on: NCI-H226 lung
[2] = tested on: SK-OV-3 ovarian
[3] = tested on: HCC-2998 colon
[4] = tested on: DU-145 prostate
[5] = tested on: KM12 colon
[6] = tested on: MOLT-4 leukemia
[7] = tested on: SR leukemia
[8] = tested on: IGROV1 ovarian
[9] = tested on: RXF 393 renal
[10] = tested on: OVCAR-4 ovarian

Compound	GI50 [1] [µM]	TGI [1] [µM]	GI50 [2] [µM]	TGI [2] [µM]	GI50 [3] [µM]	TGI [3] [µM]	GI50 [4] [µM]	TGI [4] [µM]	GI50 [5] [µM]	TGI [5] [µM]	GI50 [6] [µM]	TGI [6]	GI50 [7] [µM]	TGI [7] [µM]	GI50 [8] [µM]	TGI [8] [µM]	GI50 [9] [µM]	TGI [9] [µM]	GI50 [10] [µM]	TGI [10] [µM]
COC(=O)CCC1=C(CC(=O)OC)C(C)=N/C1=C\c1[nH]c(-c2ccc[nH]2)cc1OC	3.29	19.6	13.3	28.4	3.46	15.6	5.87	22.6	2.67	15	2.31	20.1 µM	1.71	7.7	4.21	28.6	2.15	9.56	–	–
O=C1CSC(c2ccc(-c3nc4ccccc4s3)cc2)=N1	–	–	53.2	> 100	25.9	78.5	67	> 100	3.11	13.8	–	–	13.1	59.8	50.5	> 100	28.9	> 100	41.1	> 100
O=C(NO)c1ccc(CN(c2cnccn2)c2cnccn2)cc1	20	65.7	14.6	29.5	13.2	26.8	9.26	> 100	10.3	24.2	17.7	> 100 µM	6.22	> 100	15.6	35.2	11.5	25.1	16.1	97.7
Nc1nc(N)c2cc(CNc3ccc(C(=O)NC(CC(=O)O)C(=O)O)c(Cl)c3)ccc2n1 (centres undefined)	> 500	> 500	74.7	> 500	–	> 77.5	–	> 500	–	> 500	0.05	> 31.6 µM and 316 µM	–	> 500	223	> 500	> 500	> 500	–	> 500
S=C1SC2=Nc3ccccc3CN2C2=NCCN12	> 100	> 100	> 100	> 100	> 100	> 100	> 100	> 100	> 100	> 100	39.9	> 100 µM	18.7	55.7	7.88	> 100	23.3	80.4	> 100	> 100
COc1ccc(/C=C(/c2ccccc2)[N+](=O)[O-])cc1	1.95	4.43	2.59	6.91	1.75	3.22	1.65	3.05	1.85	3.5	2.18	6.28 µM	0.464	6.95	1.27	2.67	1.35	2.78	1.69	3.15
CCCCCCCCCCN1CCC(N2CCCCC2)CC1	7.55	23.4	2.77	8.31	2.21	5.9	9.64	21.9	1.82	3.75	2.09	6.65 µM	0.627	2.98	1.66	4.52	2.01	7.15	6.61	20.7
Nc1ccccc1SC1CC(=O)N(c2ccc(Cl)c(Cl)c2)C1=O (centres undefined)	14.6	64.4	17.6	54	59.6	> 100	27.5	> 100	16.2	> 100	7.7	> 100 µM	22.4	> 100	31	> 100	14.2	42.8	19.2	> 100
CCN(CC)CCNC(=O)c1ccc(C)c(OCc2ccccc2)c1[N+](=O)[O-]	–	90.3	–	> 75.9	–	> 69.1	–	> 100	–	> 81.1	–	77.8 µM	–	69.9	–	> 100	–	> 91.3	–	> 100
CC/C=C/C/C=C/C/C=C/C/C=C/C/C=C/C/C=C/CCC(=O)Nc1ccn([C@@H]2O[C@H](CO)[C@@H](O)C2(F)F)c(=O)n1	0.228	12.1	0.14	> 52.2	14.9	> 64.4	0.043	24.9	1.42	39.8	0.0802	3.55 µM	0.0387	8.3	4.07	30.7	0.169	18.3	17.5	65.5
C=C1CC[C@@H](C(C)C)C[C@@H]2[C@H]([C@H](O)C[C@]2(C)O)[C@@]2(C)CC[C@@H]1O2	16.8	31.5	20.2	38	13.9	26.9	15.8	31.4	16.2	32	22.8	51.2 µM	14.2	30.9	17.2	33.4	19.6	34.1	14.8	28
Cc1ccc(S(=O)(=O)NC(=O)NC2=NC(C)(C)N(c3ccc(Cl)c(Cl)c3)C(N)=N2)cc1	–	> 100	–	> 100	–	> 100	–	> 100	–	> 100	–	> 100 µM	–	> 100	–	> 100	–	> 100	–	> 100
O=C(OCC(OC(=O)c1ccccc1)C(OC(=O)c1ccccc1)C(OC(=O)c1ccccc1)c1cnn(-c2ccccc2)n1)c1ccccc1 (centres undefined)	–	> 100	–	> 100	–	> 100	–	> 100	–	> 100	–	> 100 µM	–	> 100	–	> 100	–	> 100	–	> 100
NC(=S)N/N=C/c1cc(-c2cccc(N)c2)ccn1	1.73	8.18	3.29	> 93.8	2.2	> 43.5	1.25	12	1.11	> 41.2	0.588	> 100 µM	0.346	> 27.9	3.05	> 24.5	2.32	42.4	2.66	> 100
